Calls of active or inactive are those of the source.
Experiments:
Type in all cases: functional, cell-based
[1] = system: RAW264.7; assay: Antiinflammatory activity against mouse RAW264.7 cells assessed as inhibition of LPS induced TNFalpha release preincubated for 2 hrs followed by LPS challenge measured after 24 hrs by sandwich ELISA
[2] = system: RAW264.7; assay: Antiinflammatory activity against mouse RAW264.7 cells assessed as inhibition of LPS induced cox-2 expression at 10 uM preincubated for 2 hrs followed by LPS challenge measured after 24 hrs by Western blot method
[3] = system: RAW264.7; assay: Antiinflammatory activity against mouse RAW264.7 cells assessed as inhibition of LPS induced iNOS expression at 10 uM preincubated for 2 hrs followed by LPS challenge measured after 24 hrs by Western blot method
[4] = system: RAW264.7; assay: Antiinflammatory activity against mouse RAW264.7 cells assessed as inhibition of LPS induced IL-6 release 10 uM preincubated for 2 hrs followed by LPS challenge measured after 24 hrs by sandwich ELISA
[5] = system: RAW264.7; assay: Antiinflammatory activity against mouse RAW264.7 cells assessed as inhibition of LPS induced iNOS expression at 20 uM preincubated for 2 hrs followed by LPS challenge measured after 24 hrs by Western blot method
[6] = system: RAW264.7; assay: Antiinflammatory activity against mouse RAW264.7 cells assessed as inhibition of LPS induced cox-2 expression at 20 uM preincubated for 2 hrs followed by LPS challenge measured after 24 hrs by Western blot method

Measured: Activity

CC(C)=CCC[C@@](C)(O)[C@H]1CC[C@]2(C)[C@@H]1[C@H](O)C[C@@H]1[C@@]3(C)CCC(=O)C(C)(C)[C@@H]3[C@@H](O[C@@H]3O[C@H](CO)[C@@H](O)[C@H](O)[C@H]3O)C[C@]12C
active: [1] Dose-dependent effect | [2] | [3] | [4]

Cc1ccc(-c2cc(C(F)(F)F)nn2-c2ccc(S(N)(=O)=O)cc2)cc1
active: [5] | [6]

— ChEMBL document CHEMBL4177659, “Two new dammarane-type triterpene saponins from Korean red ginseng and their anti-inflammatory effects” (Bioorg Med Chem Lett, 2017)
